Data on seven compounds can be found in patent US11584775B2, “C4-modified oleanolic acid derivatives for inhibition of IL-17 and other uses” (REATA PHARMACEUTICALS, INC., priority 2015, dated 2023).

Test [1] relates to hIL17. The test can be described thus: IL-17 release from differentiated primary human T-cells (IL-17A HTRF assay). The test is classed as cell-based. To be noted: inhibition of IL-17A levels; primary human CD4+ T cells differentiated into Th17 cells, 46-hour incubation. On the procedure: D. IL-17 Release from Differentiated Primary Human T-Cells and Cell Viability
Primary human cryopreserved CD4+ T Cells (Lonza, donor #0000402103) were plated in Lymphocyte Growth Medium-3 (LGM-3, Lonza) according to the manufacturer's recommendations, and allowed to recover for approximately 3 hours at 37° C. with 5% CO2 in a humidified atmosphere. After the recovery step, cells were collected by centrifugation and re-plated in 96-well plates at a density of ˜140,000 cells per well in LGM-3 medium that contained DMSO (vehicle) or test compound (2-500 nM or 4-1000 nM concentration range). Triplicate wells were plated for each test condition. DMSO (final concentration ≤0.1%) was used as the vehicle. Immediately after plating, CD4+ T cells were activated by adding Dynabeads Human T-Activator CD3/CD28 (Life Technologies; bead-to-cell ratio of 1:2.5) and differentiated into Th17 cells by adding a mixture of the following cytokines: transforming growth factor-β (TGF-β, 5 ng/mL), IL-6 (20 ng/mL), IL-23 (20 ng/mL), and […] (10 ng/mL). Undifferentiated control cells received only cytokine IL-2 (50 ng/mL). All human recombinant cytokines were purchased from R&D Systems. Following a 46-hour incubation at 37° C. with 5% CO2 in a humidified atmosphere, the plates were centrifuged for 3 minutes at 250×g, and half of the supernatant was transferred to a new plate to be used in the IL-17A assay (see below). Cell viability was assessed in the original plate using the CyQuant Direct Assay (Life Technologies). CyQuant values from test compound samples were normalized to those from DMSO-treated samples. The concentration of IL-17A in the supernatant was measured using the Homogeneous Time-Resolved Fluorescence (HTRF) assay (Cisbio Bioassays) according to the manufacturer's protocol. The assay was performed at room temperature in low volume, solid white 384-well plates (Greiner Bio-One). Samples and standards (serially-diluted human recombinant IL-17A (0 to 5,000 pg/mL concentration range; Cisbio Bioassays) were incubated with the anti-human IL-17A antibody conjugate for 16 hours and fluorescence was measured using a Pherastar FS microplate reader (BMG Labtech) in the HTRF mode (excitation at 337 nm and emission at 665 nm and 620 nm). IL-17A concentrations were assessed in duplicate aliquots of supernatant from each well resulting in a total of six readings per test condition. The 665 nm/620 nm signal ratio was calculated and the concentration of IL-17A in each sample was determined by interpolation from the standard curve. IL-17A values from test compound samples were normalized to those from DMSO-treated samples. Data were analyzed using GraphPad Prism version 6.00 for Windows (GraphPad Software, La Jolla Calif. USA). A non-linear regression analysis with log (inhibitor) vs. normalized response using a variable slope was applied to fit the data and determine the IC50 values for inhibition of IL-17A levels and cell viability.

Test [2] has as its target T1, human RORγ (Homo sapiens, UniProt P51449).
T1 sequence (P51449 269-508 limits assumed): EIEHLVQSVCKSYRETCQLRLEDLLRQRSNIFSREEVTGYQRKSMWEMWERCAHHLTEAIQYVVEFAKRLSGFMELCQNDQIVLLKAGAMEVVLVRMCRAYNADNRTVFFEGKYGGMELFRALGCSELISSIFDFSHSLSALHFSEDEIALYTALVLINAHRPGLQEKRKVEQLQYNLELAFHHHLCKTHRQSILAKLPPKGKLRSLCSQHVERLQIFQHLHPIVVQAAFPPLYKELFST
The test can be described thus: RORγ assay (GAL4-RORγ hybrid luciferase reporter, inverse-agonist activity). The test is classed as cell-based. To be noted: GAL4-RORγ hybrid reporter cells, 23 hours. From the text: C. RORγ Assay and Cell Viability
The RORγ assay system was purchased from Indigo Biosciences. This nuclear receptor assay utilizes a human cell line that has been engineered to express a hybrid form of the Human RAR-related Orphan Receptor Gamma (RORγ) at high levels. The N-terminal DNA binding domain (DBD) of the native RORγ receptor was substituted with the yeast GAL4-DBD to generate the GAL4-RORγ hybrid nuclear receptor. The reporter cell line is transfected with a plasmid that encodes the beetle luciferase gene under the control of the GAL4 upstream activating sequence (UAS). GAL4 binds to the UAS and increases transcription of downstream target genes. […] To assess the RORγ inverse-agonist activity of the test compounds, reporter cells were plated in white 96-well plates in triplicate and were treated with DMSO (vehicle) or test compound (concentration ranges of 0.4-200 nM or 2-1000 nM) at 37° C. with 5% CO2 in a humidified atmosphere for 23 hours. After this incubation, luciferin was added to the wells and luciferase activity was determined by measuring the luminescence signal using a BMG Pherastar microplate reader. Viability was determined using the Live Cell Multiplex Assay (Indigo Biosciences). Values from test compound samples were normalized to those from DMSO-treated samples. Data were analyzed using GraphPad Prism version 6.00 for Windows (GraphPad Software, La Jolla Calif. USA). A non-linear regression analysis with log (inhibitor) vs. normalized response using a variable slope was applied to fit the data and determine the IC50 values for inhibition of RORγ and cell viability.
Background: In a reporter assay the amount or activity of a reporter protein is the signal.

Test [3] concerns NRF2. The test can be described thus: AREc32 luciferase reporter assay. The test is classed as cell-based, human. To be noted: EC2×: concentration required to increase GST ARE Luciferase reporter activity by 2-fold; AREc32 cells, 19 hours. An excerpt:
B. AREc32 Luciferase Reporter Assay
The AREc32 luciferase reporter assay allows for quantitative assessment of the endogenous activity of the Nrf2 transcription factor in cultured mammalian cells. AREc32 cells are derived from MCF-7 human breast carcinoma cells that were stably transfected with a reporter construct that contains the firefly luciferase gene located downstream of eight copies of the rat GSTA2 antioxidant response element (ARE) sequence (Wang et al., 2006; CXR Biosciences). Active NRF2 binds to the ARE sequences and increases expression of the firefly luciferase gene. To assess the NRF2-activating potential of the test compounds, AREc32 cells were plated in black 96-well plates at a density of 20,000 cells per well in triplicate in DMEM+10% FBS+0.8 mg/mL Geneticin and incubated at 37° C. with 5% CO2 in a humidified atmosphere. The next day, cells were treated with DMSO (vehicle) or test compound (concentration ranges of 0.4-200 nM or 2-1000 nM) for 19 hours. Luciferase activity was determined using the ONE-Glo Luciferase assay (Promega). The luminescence signal was measured on a BMG Pherastar microplate reader. The mean luminescence value from test compound-treated wells was normalized to that from DMSO-treated wells and was represented as fold-induction. Data were analyzed using GraphPad Prism version 6.00 for Windows, GraphPad Software, La Jolla Calif. USA. A non-linear regression curve with log (agonist) vs. response using a variable slope was used to fit the data. Where applicable, a maximum threshold value of 50-fold over DMSO was set. EC2× values were interpolated from the curve. EC2× corresponds to the concentration of test compound required to increase GST ARE Luciferase reporter activity by 2-fold.

Test [4] concerns IFNγ-induced Nitric Oxide production. The test is described as follows: Nitric oxide production assay in RAW 264.7 mouse macrophages. The test is classed as cell-based. To be noted: RAW264.7, suppression of IFNγ-induced NO production normalized to cell viability (WST-1), RAW 264.7, 24 hours IFNγ. On the procedure: A. Nitric Oxide Production Assay and Cell Viability
RAW 264.7 mouse macrophages were plated in 96-well plates at a density of 30,000 cells per well in triplicate in RPMI 1640+0.5% FBS and incubated at 37° C. with 5% CO2 in a humidified atmosphere. The next day, cells were pre-treated with DMSO (vehicle) or test compound (concentration ranges of 0.4-200 nM or 2-1000 nM) for 2 hours and then treated with recombinant mouse IFNγ (R&D Systems) for 24 hours. Nitric oxide concentration in media was determined using the Griess reagent system (Promega). Cell viability was determined using WST-1 reagent (Roche). Values from test compound samples were normalized to those from DMSO/IFNγ-treated samples. IC50 values were determined based on the suppression of IFNγ-induced Nitric Oxide production normalized to cell viability.

In general, IC50 refers to the concentration needed to halve the response being measured. Higher therefore signals weaker potency.

For `COC(=O)[C@]12CCC(C)(C)C[C@H]1[C@H]1C(=O)C=C3[C@@]4(C)C=C(C#N)C(=O)[C@](C)(O)[C@@H]4CC[C@@]3(C)[C@]1(C)CC2` [Compound T6, methyl (4aS,6aR,6bS,8aR,9R,12aS,14aR,14bS)-11-cyano-9-hydroxy-2,2,6a,6b,9,12a-hexamethyl-10,14-dioxo-1,3,4,5,6,6a,6b,7,8,8a,9,10,12a,14,14a,14b-hexadecahydropicene-4a(2H)-carboxylate], the IC50 stood at 0.032 µM in test [1], 0.115 µM in test [2] and 0.0092 µM in test [4]. Besides, the “EC2x: concentration giving 2-fold induction of ARE luciferase reporter” value in test [3] was found to be 30 nM.

As to `COCOC[C@]1(C)C(=O)C(C#N)=C[C@]2(C)C3=CC(=O)[C@@H]4[C@@H]5CC(C)(C)CC[C@]5(C(=O)OC)CC[C@@]4(C)[C@]3(C)CC[C@H]21` [Compound T7, methyl (4aS,6aR,6bS,8aR,9R,12aS,14aR,14bS)-11-cyano-9-((methoxymethoxy)methyl)-2,2,6a,6b,9,12a-hexamethyl-10,14-dioxo-1,3,4,5,6,6a,6b,7,8,8a,9,10,12a,14,14a,14b-hexadecahydropicene-4a(2H)-carboxylate], the 50% inhibitory concentration (IC50) in test [1] was determined as 0.027 µM; in test [2] it was 0.251 µM; in test [4], 0.0951 µM. Further, in test [3], the “EC2x: concentration giving 2-fold induction of ARE luciferase reporter” value was found to be 270 nM.

On to `COC(=O)[C@]12CCC(C)(C)C[C@H]1[C@H]1C(=O)C=C3[C@@]4(C)C=C(C#N)C(=O)[C@@](C)(COC(C)=O)[C@@H]4CC[C@@]3(C)[C@]1(C)CC2` [Compound T8, methyl (4aS,6aR,6bS,8aR,9R,12aS,14aR,14bS)-9-(acetoxymethyl)-11-cyano-2,2,6a,6b,9,12a-hexamethyl-10,14-dioxo-1,3,4,5,6,6a,6b,7,8,8a,9,10,12a,14,14a,14b-hexadecahydropicene-4a(2H)-carboxylate], for which the half-maximal inhibitory concentration (IC50) in test [1] worked out at 0.024 µM; in test [2], 0.109 µM; in test [4], 0.0746 µM. The “EC2x: concentration giving 2-fold induction of ARE luciferase reporter” value in test [3] stood at 276 nM.

As for `COC(=O)[C@]12CCC(C)(C)C[C@H]1[C@H]1C(=O)C=C3[C@@]4(C)C=C(C#N)C(=O)[C@@](C)(COC(=O)c5ccccc5)[C@@H]4CC[C@@]3(C)[C@]1(C)CC2` [Compound T9, methyl (4aS,6aR,6bS,8aR,9R,12aS,14aR,14bS)-9-((benzoyloxy)methyl)-11-cyano-2,2,6a,6b,9,12a-hexamethyl-10,14-dioxo-1,3,4,5,6,6a,6b,7,8,8a,9,10,12a,14,14a,14b-hexadecahydropicene-4a(2H)-carboxylate], the half-maximal inhibitory concentration (IC50) in test [1] worked out at 0.037 µM; in test [2] it was 0.361 µM; in test [4], 0.191 µM. Besides, in test [3], the “EC2x: concentration giving 2-fold induction of ARE luciferase reporter” value is reported as 962 nM.

Regarding `COC(=O)[C@]12CCC(C)(C)C[C@H]1[C@H]1C(=O)C=C3[C@@]4(C)C=C(C#N)C(=O)[C@@](C)(NC(=O)OC(C)(C)C)[C@@H]4CC[C@@]3(C)[C@]1(C)CC2` [Compound T10], the IC50 was 0.204 µM in test [1], 1.07 µM in test [2] and 0.414 µM in test [4]. Besides, in test [3], the “EC2x: concentration giving 2-fold induction of ARE luciferase reporter” value is over 1000 nM.

With `COC(=O)[C@]12CCC(C)(C)C[C@H]1[C@H]1C(=O)C=C3[C@@]4(C)C=C(C#N)C(=O)[C@@](C)(N)[C@@H]4CC[C@@]3(C)[C@]1(C)CC2` [Compound T11, methyl (4aS,6aR,6bS,8aR,9S,12aS,14aR,14bS)-9-amino-11-cyano-2,2,6a,6b,9,12a-hexamethyl-10,14-dioxo-1,3,4,5,6,6a,6b,7,8,8a,9,10,12a,14,14a,14b-hexadecahydropicene-4a(2H)-carboxylate], the half-inhibitory concentration (IC50) in test [1] stood at 0.075 µM; in test [2] it was 0.146 µM; in test [4], 0.601 µM. The “EC2x: concentration giving 2-fold induction of ARE luciferase reporter” value in test [3] is given as 477 nM.

For `COC(=O)[C@]12CCC(C)(C)C[C@H]1[C@H]1C(=O)C=C3[C@@]4(C)C=C(C#N)C(=O)[C@@](C)(NC(C)=O)[C@@H]4CC[C@@]3(C)[C@]1(C)CC2` [Compound T12, methyl (4aS,6aR,6bS,8aR,9S,12aS,14aR,14bS)-9-acetamido-11-cyano-2,2,6a,6b,9,12a-hexamethyl-10,14-dioxo-1,3,4,5,6,6a,6b,7,8,8a,9,10,12a,14,14a,14b-hexadecahydropicene-4a(2H)-carboxylate], the values for the concentration for half-maximal inhibition (IC50) in test [1], in test [2] and in test [4] were 0.081 µM, 0.419 µM and over 1 µM, respectively. The “EC2x: concentration giving 2-fold induction of ARE luciferase reporter” value in test [3] was over 1000 nM.
